This passage reports IC50 results from patent US20220089592A1, “IMIDAZO[1,2-A]PYRIDINYL DERIVATIVES AS IRAK4 INHIBITORS” (priority 2019, published 2022).

One may read the IC50 as the concentration at which inhibition is half-maximal.

Structures can show the parent of a compound that is named as a salt.

The first experiment deals with T1, IRAK4 (Homo sapiens, UniProt Q9NWZ3).
T1 sequence (Q9NWZ3 1-460): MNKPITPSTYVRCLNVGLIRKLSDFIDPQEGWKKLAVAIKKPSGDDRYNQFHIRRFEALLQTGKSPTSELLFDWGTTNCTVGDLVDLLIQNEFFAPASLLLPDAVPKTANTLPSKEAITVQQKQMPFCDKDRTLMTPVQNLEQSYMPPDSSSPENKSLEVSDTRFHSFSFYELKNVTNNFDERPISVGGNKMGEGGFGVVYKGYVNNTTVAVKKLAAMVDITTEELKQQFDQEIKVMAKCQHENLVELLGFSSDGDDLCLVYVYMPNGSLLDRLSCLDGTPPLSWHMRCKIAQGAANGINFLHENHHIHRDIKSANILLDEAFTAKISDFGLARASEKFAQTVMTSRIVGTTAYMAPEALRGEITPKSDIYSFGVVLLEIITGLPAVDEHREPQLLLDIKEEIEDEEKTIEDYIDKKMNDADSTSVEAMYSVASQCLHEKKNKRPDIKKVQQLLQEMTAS
Description: 2-hour 1 mM ATP IRAK4 Biochemical assay (as above, but with 100 pM IRAK4 and 1 mM ATP). As to conditions: IRAK4 MSD BIOCHEMICAL (1 mM ATP) IC50 (μM), 100 pM IRAK4, 2 hours. Here is the method:
The 2-hour 10 μM ATP Biochemical Assay employs a MesoScale Detection (MSD) format.
The activity is quenched with 11 μl of 70 mM EDTA, pH 8.
To detect the phosphorylated biotinylated peptide substrate, 30 μl of the quenched reaction mixture is added to equivalent wells of a 384 well streptavidin coated MesoScale plate (Meso Scale Discovery #L21SA-1). After a 1 hour incubation of the plate for 1 hour at room temperature with gentle mixing, the plate wells are washed 3 times with 50 mM Tris, pH 7.5, 150 mM NaCl, 0.02% Tween-20.
A 25 μl volume of 1:500 anti-P-Threonine Rabbit polyclonal Antibody plus 1:500 Goat-anti-Rabbit Sulfo Tag Antibody (Meso Scale Discovery R32AB-1) in 50 mM Tris, pH 7.5, 150 mM NaCl, 0.02% Tween-20 plus 2% BSA is then added to each well. After a 1-hour incubation of the plate for 1 hour at room temperature with gentle mixing, the plate wells are washed, 3 times with 50 mM Tris, pH 7.5, 150 mM NaCl, 0.02% Tween-20. A 40 μl volume of 2×MSD Read Buffer (Meso Scale Discovery R92TC-1) is added to each well, and the plate is read immediately in an MSD Plate Reader (Meso Scale Discovery).
The 2-hour 1 mM ATP IRAK4 Biochemical assay was performed as described above, but with 100 pM IRAK4 and 1 mM ATP.
Compound `COc1cc(NC(=O)c2cccc(C(F)F)n2)cn2cc(C3CCCOC3)nc12` (racemic) [Example 268, 6-(difluoromethyl)-N-(8-methoxy-2-(tetrahydro-2H-pyran-3-yl)imidazo[1,2-a]pyridin-6-yl)picolinamide] displayed an IC50 of 0.002 µM.

With `COc1ncccc1C(=O)Nc1cn2cc(C34COC(C)(C3)C4)nc2cc1OC(C)C(F)(F)F` (racemic) [Example 317, 2-methoxy-N-(2-(1-methyl-2-oxabicyclo[2.1.1]hexan-4-yl)-7-((1,1,1-trifluoropropan-2-yl)oxy)imidazo[1,2-a]pyridin-6-yl)nicotinamide], the IC50 was 0.001 µM.

In the case of `CCOc1cc(NC(=O)c2cccc(C(F)F)n2)cn2cc([C@@H]3C4COC[C@H]43)nc12` (relative stereo) [Example 306, N-(2-((1R*,5S*,6s*)-3-oxabicyclo[3.1.0]hexan-6-yl)-8-ethoxyimidazo[1,2-a]pyridin-6-yl)-6-(difluoromethyl)picolinamide], the IC50 came out at 0.007 µM.

As to `CCOc1cc2nc([C@@H]3C[C@@H]3F)cn2cc1NC(=O)c1cccc(C(F)F)n1` (relative stereo) [Example 519, Cis 6-(difluoromethyl)-N-(7-ethoxy-2-(2-fluorocyclopropyl)imidazo[1,2-a]pyridin-6-yl)picolinamide hydrochloride], the half-maximal inhibitory concentration (IC50) came out at 0.008 µM.

The compound `COc1cc(NC(=O)c2cccc(C(F)F)n2)cn2cc(C3CCCOC3)nc12` (single isomer, unassigned) [Example 269, 6-(difluoromethyl)-N-(8-methoxy-2-(tetrahydro-2H-pyran-3-yl)imidazo[1,2-a]pyridin-6-yl)picolinamide] showed a half-inhibitory concentration (IC50) of 0.004 µM.

Turning to `COc1cc(NC(=O)c2cccc(C(F)F)n2)cn2cc(C3CCCOC3)nc12` (single isomer, unassigned) [Example 270, 6-(difluoromethyl)-N-(8-methoxy-2-(tetrahydro-2H-pyran-3-yl)imidazo[1,2-a]pyridin-6-yl)picolinamide], the concentration for half-maximal inhibition (IC50) amounted to 0.003 µM.

`COc1nc(NC(=O)c2cccc(C(F)F)n2)cn2cc([C@@]34CC[C@@](C)(C3)OC4)nc12` (single isomer, unassigned) [Example 276, 6-(Difluoromethyl)-N-(8-methoxy-2-((1S*,4R*)-1-methyl-2-oxabicyclo[2.2.1]heptan-4-yl)imidazo[1,2-a]pyrazin-6-yl)picolinamide] had a half-inhibitory concentration (IC50) of 0.005 µM.

In turn, `COc1nc(NC(=O)c2cccc(C(F)F)n2)cn2cc([C@@]34CC[C@@](C)(C3)OC4)nc12` (single isomer, unassigned) [Example 277, 6-(Difluoromethyl)-N-(8-methoxy-2-((1R*,4S*)-1-methyl-2-oxabicyclo[2.2.1]heptan-4-yl)imidazo[1,2-a]pyrazin-6-yl)picolinamide] gave a half-inhibitory concentration (IC50) of 0.007 µM.

As to `CCOc1cc(NC(=O)c2cccc(C(F)F)n2)cn2cc(C3CCCOC3)nc12` (single isomer, unassigned) [Example 285, 6-(difluoromethyl)-N-(8-ethoxy-2-(tetrahydro-2H-pyran-3-yl)imidazo[1,2-a]pyridin-6-yl)picolinamide], half-maximal inhibition (IC50) was put at 0.006 µM.

`CCOc1cc(NC(=O)c2cccc(C(F)F)n2)cn2cc(C3CCCOC3)nc12` (single isomer, unassigned) [Example 286, 6-(difluoromethyl)-N-(8-ethoxy-2-(tetrahydro-2H-pyran-3-yl)imidazo[1,2-a]pyridin-6-yl)picolinamide] had a half-maximal inhibitory concentration (IC50) of 0.005 µM.

`CCOc1cc(NC(=O)c2cccc(C(F)(F)F)n2)cn2cc(C3CCCOC3)nc12` (single isomer, unassigned) [Example 287, N-(8-ethoxy-2-(tetrahydro-2H-pyran-3-yl)imidazo[1,2-a]pyridin-6-yl)-6-(trifluoromethyl)picolinamide] came in with an IC50 of 0.006 µM.

Consider `CCOc1cc(NC(=O)c2cccc(C(F)(F)F)n2)cn2cc(C3CCCOC3)nc12` (single isomer, unassigned) [Example 288, N-(8-ethoxy-2-(tetrahydro-2H-pyran-3-yl)imidazo[1,2-a]pyridin-6-yl)-6-(trifluoromethyl)picolinamide], for which half-maximal inhibition (IC50) was put at 0.008 µM.

For `COc1nc(NC(=O)c2cccc(C(F)F)n2)cn2cc(C3CCCOC3)nc12` (single isomer, unassigned) [Example 297, 6-(difluoromethyl)-N-(8-methoxy-2-(tetrahydro-2H-pyran-3-yl)imidazo[1,2-a]pyrazin-6-yl)picolinamide], half-maximal inhibition (IC50) required 0.004 µM.

On to `COc1nc(NC(=O)c2cccc(C(F)(F)F)n2)cn2cc(C3CCCOC3)nc12` (single isomer, unassigned) [Example 299, N-(8-methoxy-2-(tetrahydro-2H-pyran-3-yl)imidazo[1,2-a]pyrazin-6-yl)-6-(trifluoromethyl)picolinamide], for which the IC50 is 0.007 µM.

`COc1nc(NC(=O)c2cccc(C(F)(F)F)n2)cn2cc(C3CCCOC3)nc12` (single isomer, unassigned) [Example 300, N-(8-methoxy-2-(tetrahydro-2H-pyran-3-yl)imidazo[1,2-a]pyrazin-6-yl)-6-(trifluoromethyl)picolinamide] showed a half-maximal inhibitory concentration (IC50) of 0.005 µM.

`O=C(Nc1cn2cc(C3CCCOC3)nc2c(OC(F)F)n1)c1cccc(C(F)F)n1` (single isomer, unassigned) [Example 302, N-(8-(difluoromethoxy)-2-(tetrahydro-2H-pyran-3-yl)imidazo[1,2-a]pyrazin-6-yl)-6-(difluoromethyl)picolinamide] registered a half-inhibitory concentration (IC50) of 0.008 µM.

Regarding `COc1ncccc1C(=O)Nc1cn2cc(C34COC(C)(C3)C4)nc2cc1OC(C)C(F)(F)F` (single isomer, unassigned) [Example 318, 2-methoxy-N-(2-(1-methyl-2-oxabicyclo[2.1.1]hexan-4-yl)-7-((1,1,1-trifluoropropan-2-yl)oxy)imidazo[1,2-a]pyridin-6-yl)nicotinamide], it took 0.005 µM to reach half-maximal inhibition (IC50).

On to `COc1ncccc1C(=O)Nc1cn2cc(C34COC(C)(C3)C4)nc2cc1OC(C)C(F)(F)F` (single isomer, unassigned) [Example 319, 2-methoxy-N-(2-(1-methyl-2-oxabicyclo[2.1.1]hexan-4-yl)-7-((1,1,1-trifluoropropan-2-yl)oxy)imidazo[1,2-a]pyridin-6-yl)nicotinamide], for which the half-inhibitory concentration (IC50) came to 0.001 µM.

For `CCC(C)Oc1c(NC(=O)c2cccnc2OC)cn2cc(C34COC(C)(C3)C4)nc2c1F` (single isomer, unassigned) [Example 327, N-(7-(sec-butoxy)-8-fluoro-2-(1-methyl-2-oxabicyclo[2.1.1]hexan-4-yl)imidazo[1,2-a]pyridin-6-yl)-2-methoxynicotinamide], the midpoint of inhibition, the IC50, lay at 0.02 µM.

`CCC(C)Oc1c(NC(=O)c2cccnc2OC)cn2cc(C34COC(C)(C3)C4)nc2c1F` (single isomer, unassigned) [Example 328, N-(7-(sec-butoxy)-8-fluoro-2-(1-methyl-2-oxabicyclo[2.1.1]hexan-4-yl)imidazo[1,2-a]pyridin-6-yl)-2-methoxynicotinamide]: the IC50 was 0.004 µM.

The experiment is the same for the next values; noted with them: read-out: IRAK4 MSD BIOCHEMICAL (1 mM ATP) IC50, 100 pM IRAK4, 2 hours.
On to `COc1nc(NC(=O)c2cccc(C(F)F)n2)cn2cc(C3CCCOC3)nc12` (single isomer, unassigned) [Example 298, 6-(difluoromethyl)-N-(8-methoxy-2-(tetrahydro-2H-pyran-3-yl)imidazo[1,2-a]pyrazin-6-yl)picolinamide], for which the IC50 stood at 0.004 µM.
